Measurements reported in patent US7812220B2, “Engineering β-ketoacyl ACP synthase for novel substrate specificity” (Calgene LLC, priority 1999, dated 2010).
Where a chain is given by its changes, count along the chain named. In names and notes the source's numbering stands.

Tests used:
[1] = target: fatty acid synthase from Saccharomyces cerevisiae (Saccharomyces cerevisiae, UniProt P19097); details: among chain length analogues maintaining the double bond positions; cited from earlier work
KASII = details: in comparison with cerulenin; cited from earlier work
E. coli strain M15/pREP4 = assay: Effect of expression of KAS II mutants on the fatty acid composition of E. coli (GC FAME); format: cell-based; details: for accumulation of 18:0: IPTG induced 2 hours; for long chain fatty acid accumulation due to L111A and F133A: in combination mutants
Procedure: The mutant KAS II genes cloned behind an IPTG inducible T5 promoter (pQE30 vector, Qiagen) were transformed into E. coli strain M15/pREP4. E. coli M15/pREP4 strains containing no vector (−Vec), vector without insert (+Vec), or vectors expression wild-type KAS I or II or single or multiple engineered forms of KASII were grown to mid-log phase in LB media at 30° C. Expression was induced for 2 hours with IPTG (0.75 mM), cells were harvested, lyophilzed, and the lipids were extracted into toluene and derivatized by sodium methoxide and analyzed for fatty acid content by GC FAME analysis as described in Dehesh, et al. (1998) Plant J. 15:383-390.

Chain of fatty acid synthase from Saccharomyces cerevisiae (P19097 whole entry): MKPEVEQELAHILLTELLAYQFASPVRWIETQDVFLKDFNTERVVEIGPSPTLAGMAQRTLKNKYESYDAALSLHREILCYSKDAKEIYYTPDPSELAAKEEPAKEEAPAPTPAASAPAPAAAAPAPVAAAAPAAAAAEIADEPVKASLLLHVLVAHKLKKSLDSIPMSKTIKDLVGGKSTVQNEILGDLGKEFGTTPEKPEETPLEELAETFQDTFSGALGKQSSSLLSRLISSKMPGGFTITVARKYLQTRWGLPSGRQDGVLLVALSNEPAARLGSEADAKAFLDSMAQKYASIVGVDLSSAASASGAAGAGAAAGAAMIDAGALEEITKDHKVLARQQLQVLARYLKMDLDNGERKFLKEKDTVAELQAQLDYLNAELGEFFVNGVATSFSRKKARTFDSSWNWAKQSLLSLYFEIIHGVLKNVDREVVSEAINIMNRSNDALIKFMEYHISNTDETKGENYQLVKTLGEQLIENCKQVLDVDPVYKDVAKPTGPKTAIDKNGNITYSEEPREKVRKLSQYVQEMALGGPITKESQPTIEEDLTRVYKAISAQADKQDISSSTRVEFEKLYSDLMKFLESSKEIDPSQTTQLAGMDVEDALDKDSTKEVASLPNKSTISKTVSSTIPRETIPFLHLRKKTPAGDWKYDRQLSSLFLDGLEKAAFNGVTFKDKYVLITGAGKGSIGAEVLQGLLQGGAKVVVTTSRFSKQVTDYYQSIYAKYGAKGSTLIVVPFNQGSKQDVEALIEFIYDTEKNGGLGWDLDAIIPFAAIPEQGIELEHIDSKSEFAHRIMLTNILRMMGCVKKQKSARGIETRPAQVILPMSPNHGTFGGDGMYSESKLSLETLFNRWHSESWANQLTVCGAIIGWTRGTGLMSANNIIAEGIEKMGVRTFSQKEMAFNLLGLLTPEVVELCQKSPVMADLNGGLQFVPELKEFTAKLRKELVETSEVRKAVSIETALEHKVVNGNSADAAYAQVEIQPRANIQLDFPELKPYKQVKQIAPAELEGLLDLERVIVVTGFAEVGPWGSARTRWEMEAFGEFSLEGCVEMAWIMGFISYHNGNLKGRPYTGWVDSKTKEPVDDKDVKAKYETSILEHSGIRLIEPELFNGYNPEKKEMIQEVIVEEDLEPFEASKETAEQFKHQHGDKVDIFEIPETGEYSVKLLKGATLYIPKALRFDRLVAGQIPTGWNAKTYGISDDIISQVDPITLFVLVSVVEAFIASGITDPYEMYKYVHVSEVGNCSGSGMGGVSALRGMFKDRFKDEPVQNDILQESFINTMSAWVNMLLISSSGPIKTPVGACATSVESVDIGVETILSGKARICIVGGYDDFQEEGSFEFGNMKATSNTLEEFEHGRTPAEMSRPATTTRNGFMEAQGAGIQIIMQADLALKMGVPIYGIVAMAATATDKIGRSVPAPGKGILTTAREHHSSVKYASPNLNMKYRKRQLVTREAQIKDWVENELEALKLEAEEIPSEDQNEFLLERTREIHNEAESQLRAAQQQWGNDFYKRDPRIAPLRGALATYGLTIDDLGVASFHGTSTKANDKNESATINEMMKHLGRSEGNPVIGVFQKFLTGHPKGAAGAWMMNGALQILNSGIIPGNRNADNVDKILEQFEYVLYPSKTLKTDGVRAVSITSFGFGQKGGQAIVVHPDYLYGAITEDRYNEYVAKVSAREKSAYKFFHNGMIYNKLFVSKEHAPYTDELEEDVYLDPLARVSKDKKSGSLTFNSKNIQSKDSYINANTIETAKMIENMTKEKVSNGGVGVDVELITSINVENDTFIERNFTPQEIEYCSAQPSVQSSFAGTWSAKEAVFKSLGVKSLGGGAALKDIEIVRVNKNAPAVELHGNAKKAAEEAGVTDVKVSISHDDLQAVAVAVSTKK
Chain of fatty acid synthase from Saccharomyces cerevisiae (P07149 whole entry partner): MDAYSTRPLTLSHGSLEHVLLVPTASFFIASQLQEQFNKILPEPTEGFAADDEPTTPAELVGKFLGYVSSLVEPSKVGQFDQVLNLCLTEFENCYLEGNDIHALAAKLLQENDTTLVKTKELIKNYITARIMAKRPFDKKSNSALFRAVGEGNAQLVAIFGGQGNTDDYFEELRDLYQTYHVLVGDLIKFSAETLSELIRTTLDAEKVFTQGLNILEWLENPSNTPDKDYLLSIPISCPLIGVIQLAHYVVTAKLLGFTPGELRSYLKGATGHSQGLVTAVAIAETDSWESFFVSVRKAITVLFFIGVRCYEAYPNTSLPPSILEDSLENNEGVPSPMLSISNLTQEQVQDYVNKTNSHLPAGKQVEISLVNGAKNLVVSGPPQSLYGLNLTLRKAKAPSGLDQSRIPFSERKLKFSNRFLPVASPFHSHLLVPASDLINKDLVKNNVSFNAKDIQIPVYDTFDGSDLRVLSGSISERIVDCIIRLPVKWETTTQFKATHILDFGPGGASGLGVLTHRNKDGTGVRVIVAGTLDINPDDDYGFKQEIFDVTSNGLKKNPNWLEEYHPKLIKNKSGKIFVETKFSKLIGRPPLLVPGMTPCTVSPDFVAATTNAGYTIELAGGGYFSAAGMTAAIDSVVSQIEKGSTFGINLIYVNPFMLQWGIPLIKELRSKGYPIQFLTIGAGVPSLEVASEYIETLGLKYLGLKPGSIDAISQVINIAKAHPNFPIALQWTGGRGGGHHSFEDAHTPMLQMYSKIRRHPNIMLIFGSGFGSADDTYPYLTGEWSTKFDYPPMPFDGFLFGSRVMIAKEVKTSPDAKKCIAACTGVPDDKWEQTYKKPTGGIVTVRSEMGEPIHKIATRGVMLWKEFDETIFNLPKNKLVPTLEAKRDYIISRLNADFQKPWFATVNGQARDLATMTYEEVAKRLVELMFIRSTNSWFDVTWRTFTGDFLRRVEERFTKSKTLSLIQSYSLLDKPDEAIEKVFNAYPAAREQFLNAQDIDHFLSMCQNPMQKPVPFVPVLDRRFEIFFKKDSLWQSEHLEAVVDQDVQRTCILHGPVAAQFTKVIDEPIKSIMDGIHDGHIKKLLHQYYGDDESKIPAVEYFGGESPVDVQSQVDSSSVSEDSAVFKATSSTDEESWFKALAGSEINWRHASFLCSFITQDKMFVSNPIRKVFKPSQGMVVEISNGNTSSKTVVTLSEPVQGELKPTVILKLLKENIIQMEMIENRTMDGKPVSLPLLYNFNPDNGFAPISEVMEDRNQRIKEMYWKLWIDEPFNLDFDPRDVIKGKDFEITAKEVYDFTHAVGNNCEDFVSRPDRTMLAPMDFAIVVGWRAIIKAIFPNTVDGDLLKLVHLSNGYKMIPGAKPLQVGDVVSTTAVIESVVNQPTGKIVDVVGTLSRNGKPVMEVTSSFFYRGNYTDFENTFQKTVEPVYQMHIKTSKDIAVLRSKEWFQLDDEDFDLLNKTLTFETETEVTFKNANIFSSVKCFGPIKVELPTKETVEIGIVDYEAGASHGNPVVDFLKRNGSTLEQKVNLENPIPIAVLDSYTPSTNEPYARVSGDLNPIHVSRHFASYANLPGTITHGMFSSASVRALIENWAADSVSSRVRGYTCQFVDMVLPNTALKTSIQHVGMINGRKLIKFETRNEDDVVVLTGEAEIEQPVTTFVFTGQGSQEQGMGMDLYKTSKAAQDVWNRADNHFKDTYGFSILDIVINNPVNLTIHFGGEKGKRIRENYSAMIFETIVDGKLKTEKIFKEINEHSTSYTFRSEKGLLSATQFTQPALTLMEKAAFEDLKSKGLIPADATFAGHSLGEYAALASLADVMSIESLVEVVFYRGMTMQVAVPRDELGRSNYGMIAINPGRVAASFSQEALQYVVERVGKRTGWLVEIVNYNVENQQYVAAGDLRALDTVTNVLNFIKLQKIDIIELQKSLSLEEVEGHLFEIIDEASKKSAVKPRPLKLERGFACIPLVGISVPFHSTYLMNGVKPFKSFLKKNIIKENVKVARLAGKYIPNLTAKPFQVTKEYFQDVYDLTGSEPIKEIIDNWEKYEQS

For `C/C=C/C/C=C/CCC(=O)[C@H]1O[C@H]1C(N)=O` [Cerulenin, cerulenin], the inhibitory activity [1] is given as “highest inhibitory activity”.

In the case of `CCCCCCCCC(=O)[C@H]1O[C@H]1C(N)=O` [tetrahydrocerulenin], the “inhibitory activity, less than cerulenin” value (KASII) is listed as “more than 2 orders of magnitude”.

For “F133A: E. coli KAS II protein with F133A mutation”, the “accumulation of 18:0” value (E. coli strain M15/pREP4; FIG. 3) was 7%.

For I108A, the “long chain fatty acid accumulation due to L111A and F133A” value (E. coli strain M15/pREP4) was “decrease the long chain fatty acid accumulation”.

For I114A, the “long chain fatty acid accumulation due to L111A and F133A” value (E. coli strain M15/pREP4) was “decrease the long chain fatty acid accumulation”.

For “L111A: E. coli KAS II protein with L111A mutation”, the “accumulation of 18:0” value (E. coli strain M15/pREP4; FIG. 3) was 13%.

B1: L197: E. coli KAS II protein with L197A mutation (protein, UniProt P0AAI5 2-413, looked up, variant L197A)
3-oxoacyl-[acyl-carrier-protei …: SKRRVVVTGLGMLSPVGNTVESTWKALLAGQSGISLIDHFDTSAYATKFAGLVKDFNCEDIISRKEQRKMDAFIQYGIVAGVQAMQDSGLEITEENATRIGAAIGSGIGGLGLIEENHTSLMNGGPRKISPFFVPSTIVNMVAGHLTIMYGLRGPSISIATACTSGVHNIGHAARIIAYGDADVMVAGGAEKASTPAGVGGFGAARALSTRNDNPQAASRPWDKERDGFVLGDGAGMLVLEEYEHAKKRGAKIYAELVGFGMSSDAYHMTSPPENGAGAALAMANALRDAGIEASQIGYVNAHGTSTPAGDKAEAQAVKTIFGEAASRVLVSSTKSMTGHLLGAAGAVESIYSILALRDQAVPPTINLDNPDEGCDLDFVPHEARQVSGMEYTLCNSFGFGGTNGSLIFKKI
With B1 the “accumulation of 18:0” value (E. coli strain M15/pREP4; FIG. 3) was 4%.

B2: KAS II/L111A-F133A (protein, UniProt P0AAI5 2-413, looked up, variant L111A F133A)
3-oxoacyl-[acyl-carrier-protei …: B1 3-oxoacyl-[acyl-carrier-protei … with L111A, F133A, A197L
With B2 the “level of 20:0” value (E. coli strain M15/pREP4; FIG. 3) was 2% and the “level of 20:1” value (E. coli strain M15/pREP4; FIG. 3) was 4%.
